In patent US8415469B2, “Compounds and methods for kinase modulation, and indications therefor” (Plexxikon Inc., priority 2005, dated 2013):

How the values were obtained:
Type in all cases: biochemical
Irak4 = target: T1, Irak4 (Homo sapiens, UniProt Q9NWZ3); test: Z'-Lyte FRET kinase assay (Invitrogen), Irak4; conditions: read-out: IC50, activity toward kinase Irak4
T1 construct: purchased Invitrogen (assay run by Invitrogen)
T1 sequence (Q9NWZ3 1-460): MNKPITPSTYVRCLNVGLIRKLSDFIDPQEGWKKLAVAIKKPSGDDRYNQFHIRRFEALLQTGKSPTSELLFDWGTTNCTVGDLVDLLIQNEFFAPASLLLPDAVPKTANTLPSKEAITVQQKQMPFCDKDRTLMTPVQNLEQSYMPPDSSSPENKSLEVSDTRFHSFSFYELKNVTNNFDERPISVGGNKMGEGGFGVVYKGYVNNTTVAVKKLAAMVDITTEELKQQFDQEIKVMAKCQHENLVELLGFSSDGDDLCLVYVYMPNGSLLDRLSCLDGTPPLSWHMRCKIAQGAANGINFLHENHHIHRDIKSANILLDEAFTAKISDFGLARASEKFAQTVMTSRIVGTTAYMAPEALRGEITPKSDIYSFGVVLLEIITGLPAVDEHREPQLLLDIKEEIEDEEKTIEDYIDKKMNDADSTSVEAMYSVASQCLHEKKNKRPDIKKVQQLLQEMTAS
Description: The effect of potential modulators of kinase activity can be measured in a variety of different assays known in the art. For example, direct radiometric, indirect FRET or AlphaScreen assays may be used to assess the level of phosphorylation of a substrate in the presence of test compounds in order to determine the inhibitory affect of the compound on the kinase. Invitrogen (Carlsbad, Calif.) uses a FRET based assay for Btk, EGFR, EphB2, Flt3, lrak4, Kdr, MAP2K1, MAPKAPK2, PDGFRB, PKC theta, Stk6 and Yes. For these assays, compounds of the invention were screened by Invitrogen using Z′-Lyte™ kinase assay.
Briefly, the Invitrogen kinase assay involves use of a specific peptide substrate optimized for each kinase, containing a fluorophore at each end that make up the FRET pair. The peptide sensitivity to proteolytic cleavage depends on phosphorylation of the peptide. Non-phosphorylated peptide is cleaved by a protease while peptide phosphorylated by the kinase is not cleaved. Cleavage of the peptide disrupts the FRET between the donor (coumarin) and acceptor (fluorescein) fluorophores, resulting in an increase in the ratio of donor emission to acceptor emission. The emission ratio of coumarin to fluorescein is used to assess the reaction progress. The extent of phosphorylation is determined from the emission ratio, which is low when the kinase is active (phosphorylated peptide is not cleaved, FRET pair connected) or higher for inhibited kinase (non-phosphorylated peptide is cleaved, FRET pair separated). Thus, the assay involves a kinase reaction in the presence of varying concentrations of a given compound, a development reaction with site specific protease, and detection of the fluorescent emission ratio of coumarin and fluorscein. […] Reaction conditions for each kinase are determined to provide optimal reaction times, incubation temperature, kinase and ATP concentrations. Test samples are made up in 1× kinase buffer (50 mM HEPES pH 7.5, 50 mM MgCl2, 5 mM EGTA, 0.05% BRIJ-35) and compound at desired concentration prepared in DMSO such that the final DMSO is 1%. […] Typically, assay plates are prepared to 10 μl final volume per sample, adding 2.5 μl of compound at 4× the desired concentration in 4% DMSO (serial dilution of compound provides concentration curve), 5 μl of the desired kinase mixed with Z′-LYTE™ peptide substrate (2× in 2× kinase buffer, final peptide at 2 μM), and 2.5 μl of 4×ATP solution. All kinase except for MAP2K1 were at 10 μM ATP in the kinase reaction, while MAP2K1 was at 100 μM. Samples are mixed and the kinase reaction is incubated 1 hour at room temperature, after which 5 μl of development solution is added and mixed. After incubation for another 1 hour at room temperature, 5 μl of stop reagent is added to each sample and mixed. The fluorescence signals are measured to determine the emission ratio.

Kdr = target: T2, Kdr (Homo sapiens, UniProt P35968); test: Z'-Lyte FRET kinase assay (Invitrogen), Kdr; conditions: read-out: IC50, activity toward kinase Kdr
T2 construct: purchased Invitrogen (assay run by Invitrogen)
T2 sequence (P35968 20-1356): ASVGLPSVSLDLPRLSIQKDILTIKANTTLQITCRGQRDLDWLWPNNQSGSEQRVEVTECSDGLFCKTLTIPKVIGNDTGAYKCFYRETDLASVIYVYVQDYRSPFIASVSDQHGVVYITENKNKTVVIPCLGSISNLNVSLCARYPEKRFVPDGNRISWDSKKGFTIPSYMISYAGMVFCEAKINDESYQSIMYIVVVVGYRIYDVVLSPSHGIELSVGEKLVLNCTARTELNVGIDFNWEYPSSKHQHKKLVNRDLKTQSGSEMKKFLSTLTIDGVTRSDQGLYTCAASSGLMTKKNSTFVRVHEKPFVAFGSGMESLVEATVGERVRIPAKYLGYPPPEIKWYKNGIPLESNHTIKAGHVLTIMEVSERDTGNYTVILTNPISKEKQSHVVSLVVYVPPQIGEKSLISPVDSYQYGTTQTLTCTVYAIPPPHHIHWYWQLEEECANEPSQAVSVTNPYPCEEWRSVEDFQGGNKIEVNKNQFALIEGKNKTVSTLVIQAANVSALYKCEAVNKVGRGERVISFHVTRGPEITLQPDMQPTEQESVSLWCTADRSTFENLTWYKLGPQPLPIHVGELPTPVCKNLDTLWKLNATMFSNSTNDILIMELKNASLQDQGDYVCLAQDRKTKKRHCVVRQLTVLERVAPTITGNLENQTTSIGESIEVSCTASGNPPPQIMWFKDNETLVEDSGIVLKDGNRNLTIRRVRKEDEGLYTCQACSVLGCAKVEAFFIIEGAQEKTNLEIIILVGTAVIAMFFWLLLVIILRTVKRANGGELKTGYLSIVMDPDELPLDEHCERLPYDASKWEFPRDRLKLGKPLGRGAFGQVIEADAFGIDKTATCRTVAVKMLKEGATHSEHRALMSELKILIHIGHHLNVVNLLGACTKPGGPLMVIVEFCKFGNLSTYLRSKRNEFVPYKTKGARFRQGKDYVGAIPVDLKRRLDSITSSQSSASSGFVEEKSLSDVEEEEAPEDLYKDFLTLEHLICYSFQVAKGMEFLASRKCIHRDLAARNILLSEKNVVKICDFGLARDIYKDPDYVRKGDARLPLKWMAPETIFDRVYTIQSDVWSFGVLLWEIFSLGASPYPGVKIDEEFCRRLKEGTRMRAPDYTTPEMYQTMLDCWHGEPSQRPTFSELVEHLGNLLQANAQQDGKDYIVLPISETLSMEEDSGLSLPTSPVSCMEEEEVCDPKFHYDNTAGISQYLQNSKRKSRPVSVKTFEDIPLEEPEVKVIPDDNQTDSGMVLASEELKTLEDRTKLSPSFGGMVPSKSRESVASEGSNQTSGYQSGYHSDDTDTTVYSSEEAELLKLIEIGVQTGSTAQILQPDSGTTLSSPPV

MAP2K1 = target: T3, MAP2K1 (Homo sapiens, UniProt Q02750); test: Z'-Lyte FRET kinase assay (Invitrogen), MAP2K1; conditions: read-out: IC50, activity toward kinase MAP2K1
T3 construct: purchased Invitrogen (assay run by Invitrogen)
T3 sequence (Q02750 whole entry): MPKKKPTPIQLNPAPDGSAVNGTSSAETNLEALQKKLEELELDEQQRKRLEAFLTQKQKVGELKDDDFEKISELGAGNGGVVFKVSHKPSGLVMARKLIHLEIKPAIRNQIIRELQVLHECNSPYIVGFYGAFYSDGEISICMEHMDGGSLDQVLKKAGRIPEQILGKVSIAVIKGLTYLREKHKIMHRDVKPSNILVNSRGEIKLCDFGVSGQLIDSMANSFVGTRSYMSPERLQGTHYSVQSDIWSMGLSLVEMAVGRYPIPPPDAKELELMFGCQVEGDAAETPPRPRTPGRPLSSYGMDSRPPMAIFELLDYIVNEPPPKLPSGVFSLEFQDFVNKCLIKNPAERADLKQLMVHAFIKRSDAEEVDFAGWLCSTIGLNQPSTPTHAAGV

Stk6 = target: T4, Stk6 (Homo sapiens, UniProt O14965); test: Z'-Lyte FRET kinase assay (Invitrogen), Stk6; conditions: read-out: IC50, activity toward kinase Stk6
T4 construct: purchased Invitrogen (Carlsbad, Calif.), screening service
T4 sequence (O14965 1-403): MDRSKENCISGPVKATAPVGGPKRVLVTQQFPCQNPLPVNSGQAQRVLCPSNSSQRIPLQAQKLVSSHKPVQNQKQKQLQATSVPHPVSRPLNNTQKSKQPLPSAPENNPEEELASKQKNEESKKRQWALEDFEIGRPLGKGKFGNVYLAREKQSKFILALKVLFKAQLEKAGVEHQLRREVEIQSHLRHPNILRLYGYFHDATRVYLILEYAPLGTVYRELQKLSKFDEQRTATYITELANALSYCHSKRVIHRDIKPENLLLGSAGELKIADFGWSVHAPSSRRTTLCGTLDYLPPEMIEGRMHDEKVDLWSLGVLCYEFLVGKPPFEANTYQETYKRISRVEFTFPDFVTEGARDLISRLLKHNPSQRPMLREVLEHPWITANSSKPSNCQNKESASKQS

IKK beta = target: T5, IKK beta (Homo sapiens, UniProt O14920); test: AlphaScreen kinase assay, IKK beta; conditions: read-out: IC50, activity toward kinase IKK beta
T5 sequence (O14920 1-756): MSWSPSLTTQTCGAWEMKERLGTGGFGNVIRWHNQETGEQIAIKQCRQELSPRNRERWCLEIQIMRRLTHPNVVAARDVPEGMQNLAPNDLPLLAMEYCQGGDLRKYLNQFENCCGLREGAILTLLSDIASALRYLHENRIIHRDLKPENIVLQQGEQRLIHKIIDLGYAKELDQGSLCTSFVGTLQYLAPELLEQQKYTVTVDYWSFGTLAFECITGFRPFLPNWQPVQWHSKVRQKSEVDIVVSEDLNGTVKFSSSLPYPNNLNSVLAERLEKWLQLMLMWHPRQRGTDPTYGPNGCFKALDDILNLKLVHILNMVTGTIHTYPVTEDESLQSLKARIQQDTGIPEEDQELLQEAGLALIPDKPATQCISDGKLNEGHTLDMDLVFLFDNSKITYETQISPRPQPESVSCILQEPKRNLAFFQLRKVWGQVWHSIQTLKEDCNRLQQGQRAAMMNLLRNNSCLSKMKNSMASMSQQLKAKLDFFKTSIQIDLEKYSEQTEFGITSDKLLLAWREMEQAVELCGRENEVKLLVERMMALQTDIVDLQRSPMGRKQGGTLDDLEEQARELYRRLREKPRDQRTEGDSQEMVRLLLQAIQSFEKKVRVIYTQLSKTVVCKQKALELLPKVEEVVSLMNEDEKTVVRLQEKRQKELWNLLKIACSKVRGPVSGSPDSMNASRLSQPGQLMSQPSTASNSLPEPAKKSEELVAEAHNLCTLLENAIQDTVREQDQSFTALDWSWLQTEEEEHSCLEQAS
Description: (§2) AlphaScreen assay was used to screen additional kinases. The assay is similarly dependent on the phosphorylation of a peptide substrate. In this assay, an antibody that recognizes phosphorylated substrate is bound to an acceptor bead. The peptide substrate is attached to biotin, which binds to a donor head that contains streptavidin. Thus phosphorylated substrate is bound by antibody and streptavidin, bringing the donor and acceptor heads into close proximity when kinase is not inhibited. The donor produces singlet oxygen which results in emission from the acceptor when they are in close proximity. Conversely, when kinase is inhibited, the donor and acceptor beads are not associated and the emission from the acceptor is reduced.
(§3) AlphaScreen assays were done using compounds dissolved in DMSO to a concentration of 20 mM. The compounds were diluted accordingly to the desired final concentrations in each sample well, using 1:3 serial dilution for a total of 8 concentration points. Plates were prepared such that each kinase reaction is 20 μl in 1× kinase buffer, 5% DMSO and 10 μM ATP. After incubation of the kinase reaction for 1 hour at room temperature, 5 μl of donor beads in stop buffer (50 mM EDTA in 1× kinase buffer) was added, the sample was mixed and incubated for 20 minutes at room temperature before adding 5 μl of acceptor beads in stop buffer. The samples were incubated for 60 minutes at room temperature and the signal per well was read on AlphaQuest reader.

Kit = target: T6, Kit (Homo sapiens, UniProt P10721); test: AlphaScreen kinase assay, Kit; conditions: read-out: IC50, activity toward kinase Kit
T6 construct: P1332.N6 BI PTP KIT M552-K948-X COD; His6 (N); made in house; host or cells: E. coli (PTP1B co-expressed)
T6 sequence (P10721 with tags, fused parts or gaps): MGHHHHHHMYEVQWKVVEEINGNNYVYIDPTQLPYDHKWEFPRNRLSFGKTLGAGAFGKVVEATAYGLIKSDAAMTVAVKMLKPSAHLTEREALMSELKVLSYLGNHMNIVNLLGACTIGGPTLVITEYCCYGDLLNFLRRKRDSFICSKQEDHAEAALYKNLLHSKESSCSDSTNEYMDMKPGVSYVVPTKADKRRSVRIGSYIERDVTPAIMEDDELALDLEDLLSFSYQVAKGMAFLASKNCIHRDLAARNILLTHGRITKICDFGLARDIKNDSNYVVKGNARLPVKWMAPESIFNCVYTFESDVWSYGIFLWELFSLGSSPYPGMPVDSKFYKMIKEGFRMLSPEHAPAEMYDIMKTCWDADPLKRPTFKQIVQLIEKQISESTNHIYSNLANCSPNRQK

p38 = target: T7, p38 (Homo sapiens, UniProt Q16539); test: AlphaScreen kinase assay, p38; conditions: read-out: IC50, activity toward kinase p38
T7 construct: P4292.pET15S P38A M1-S360-X MKK6DD; His6 with thrombin site (N); made in house
T7 sequence (Q16539 with tags, fused parts or gaps): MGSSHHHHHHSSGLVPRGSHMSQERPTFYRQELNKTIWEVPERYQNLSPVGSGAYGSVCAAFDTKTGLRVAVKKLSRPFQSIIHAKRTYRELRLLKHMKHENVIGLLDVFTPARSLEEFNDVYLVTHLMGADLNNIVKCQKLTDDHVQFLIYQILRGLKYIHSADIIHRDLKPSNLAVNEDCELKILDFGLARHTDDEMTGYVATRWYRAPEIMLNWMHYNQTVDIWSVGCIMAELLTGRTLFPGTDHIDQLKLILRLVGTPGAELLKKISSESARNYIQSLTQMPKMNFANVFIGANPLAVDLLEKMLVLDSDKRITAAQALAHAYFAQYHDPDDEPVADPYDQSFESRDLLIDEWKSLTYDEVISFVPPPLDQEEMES
Description: as §2, §3

Abl = target: T8, Abl (Homo sapiens, UniProt P00519); test: AlphaScreen kinase assay, Abl; conditions: read-out: activity toward kinase Abl, IC50
T8 construct: P1121. pET-SPEC BI-PTP Abl G227-V515-X; His6 (N); made in house; host or cells: E. coli (PTP1B co-expressed)
T8 sequence (P00519 with tags, fused parts or gaps): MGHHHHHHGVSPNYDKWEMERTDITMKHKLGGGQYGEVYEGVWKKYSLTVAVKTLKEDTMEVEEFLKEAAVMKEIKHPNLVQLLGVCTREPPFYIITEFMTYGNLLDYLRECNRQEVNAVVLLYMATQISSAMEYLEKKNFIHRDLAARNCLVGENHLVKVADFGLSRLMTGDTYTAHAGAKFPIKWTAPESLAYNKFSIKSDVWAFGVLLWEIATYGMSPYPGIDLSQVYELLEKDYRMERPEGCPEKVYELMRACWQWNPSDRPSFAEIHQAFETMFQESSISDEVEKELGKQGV
Outline: (§1)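 AlphaScreen, biotin-peptide substrate; streptavidin donor/anti-phospho acceptor beads; decreased emission = inhibition. Cpds 20 mM DMSO stock, 1:3 x 8 conc.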

FGFR1 = target: T9, FGFR1 (Homo sapiens, UniProt P11362, C488A/C584S); test: AlphaScreen kinase assay, FGFR1; conditions: read-out: IC50, activity toward kinase FGFR
T9 construct: P1351.pET N6 BI-PTP FGFR A458-E765-X C488A, C584S; made in house; host or cells: E. coli (PTP1B co-expressed)
T9 sequence (P11362 458-765 C488A/C584S): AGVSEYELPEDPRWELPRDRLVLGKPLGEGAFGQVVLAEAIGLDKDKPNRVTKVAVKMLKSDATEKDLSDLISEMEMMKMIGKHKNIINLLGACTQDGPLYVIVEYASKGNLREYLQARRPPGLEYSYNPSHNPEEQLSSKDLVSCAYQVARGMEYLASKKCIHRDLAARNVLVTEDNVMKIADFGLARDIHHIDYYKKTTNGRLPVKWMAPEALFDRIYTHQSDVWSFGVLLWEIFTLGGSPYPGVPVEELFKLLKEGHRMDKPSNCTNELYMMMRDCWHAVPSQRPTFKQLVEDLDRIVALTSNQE

Flt1 = target: T10, Flt1 (Homo sapiens, UniProt P17948); test: AlphaScreen kinase assay, Flt1; conditions: read-out: IC50, activity toward kinase Flt1
T10 construct: P1826.pETN6 BI-PTP FLT1 M799-D1165-X WT; His6 (N); made in house; host or cells: E. coli (PTP1B co-expressed)
T10 sequence (P17948 with tags, fused parts or gaps): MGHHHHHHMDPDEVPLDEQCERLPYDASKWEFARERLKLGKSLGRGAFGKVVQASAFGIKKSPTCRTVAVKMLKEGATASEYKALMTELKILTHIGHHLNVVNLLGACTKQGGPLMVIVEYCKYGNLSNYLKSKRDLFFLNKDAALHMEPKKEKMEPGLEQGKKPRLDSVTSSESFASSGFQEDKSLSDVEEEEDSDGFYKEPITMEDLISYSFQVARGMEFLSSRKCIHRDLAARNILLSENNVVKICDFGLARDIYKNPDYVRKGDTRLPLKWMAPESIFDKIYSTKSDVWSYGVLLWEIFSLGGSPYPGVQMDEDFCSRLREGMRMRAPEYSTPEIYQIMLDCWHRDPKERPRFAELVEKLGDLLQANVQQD

Flt4 = target: T11, Flt4 (Homo sapiens, UniProt P35916); test: AlphaScreen kinase assay, Flt4; conditions: read-out: IC50, activity toward kinase Flt4
T11 construct: purchased ProQinase GmbH (Freiburg, Germany)
T11 sequence (P35916 25-1363): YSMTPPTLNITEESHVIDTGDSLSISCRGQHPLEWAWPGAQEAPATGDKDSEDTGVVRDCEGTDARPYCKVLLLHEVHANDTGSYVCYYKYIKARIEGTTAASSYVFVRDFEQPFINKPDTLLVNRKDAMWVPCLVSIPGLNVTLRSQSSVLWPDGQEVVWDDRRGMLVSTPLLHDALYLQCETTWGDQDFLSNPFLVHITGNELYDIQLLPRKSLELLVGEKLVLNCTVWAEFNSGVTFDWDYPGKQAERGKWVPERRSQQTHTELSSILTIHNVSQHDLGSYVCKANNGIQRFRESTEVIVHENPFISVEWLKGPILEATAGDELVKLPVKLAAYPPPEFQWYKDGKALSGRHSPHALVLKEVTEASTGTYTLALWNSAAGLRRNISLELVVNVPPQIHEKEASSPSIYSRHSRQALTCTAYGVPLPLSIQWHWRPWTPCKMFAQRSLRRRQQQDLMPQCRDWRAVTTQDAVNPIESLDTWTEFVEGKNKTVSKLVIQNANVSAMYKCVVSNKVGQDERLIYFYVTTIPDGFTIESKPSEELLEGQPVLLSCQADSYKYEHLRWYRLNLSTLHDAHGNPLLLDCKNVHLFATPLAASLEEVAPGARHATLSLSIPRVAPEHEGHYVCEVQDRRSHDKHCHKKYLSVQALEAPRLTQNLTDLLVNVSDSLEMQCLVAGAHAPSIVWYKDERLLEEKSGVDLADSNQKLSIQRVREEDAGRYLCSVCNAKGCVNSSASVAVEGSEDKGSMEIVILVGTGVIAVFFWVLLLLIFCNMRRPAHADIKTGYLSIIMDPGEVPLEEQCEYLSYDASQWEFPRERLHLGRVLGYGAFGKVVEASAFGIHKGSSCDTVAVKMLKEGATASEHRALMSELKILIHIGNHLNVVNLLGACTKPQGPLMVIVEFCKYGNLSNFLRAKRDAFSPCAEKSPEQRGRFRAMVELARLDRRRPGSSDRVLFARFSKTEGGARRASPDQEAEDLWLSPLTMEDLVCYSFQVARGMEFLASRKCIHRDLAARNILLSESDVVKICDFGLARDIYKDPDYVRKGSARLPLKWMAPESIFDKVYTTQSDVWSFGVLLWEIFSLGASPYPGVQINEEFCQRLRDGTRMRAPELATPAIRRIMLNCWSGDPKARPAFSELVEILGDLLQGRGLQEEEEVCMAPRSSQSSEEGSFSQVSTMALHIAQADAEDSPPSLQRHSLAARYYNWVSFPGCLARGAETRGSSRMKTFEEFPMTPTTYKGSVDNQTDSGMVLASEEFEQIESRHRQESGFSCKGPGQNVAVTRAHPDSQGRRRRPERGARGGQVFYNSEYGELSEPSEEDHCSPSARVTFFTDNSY
Outline: as §1

Ret = target: T12, Ret (Homo sapiens, UniProt P07949); test: AlphaScreen kinase assay, Ret; conditions: read-out: IC50, activity toward kinase Ret
T12 construct: P1378.pET-SF BI-PTP RET H661-R1012 HIS; made in house
T12 sequence (P07949 with tags, fused parts or gaps): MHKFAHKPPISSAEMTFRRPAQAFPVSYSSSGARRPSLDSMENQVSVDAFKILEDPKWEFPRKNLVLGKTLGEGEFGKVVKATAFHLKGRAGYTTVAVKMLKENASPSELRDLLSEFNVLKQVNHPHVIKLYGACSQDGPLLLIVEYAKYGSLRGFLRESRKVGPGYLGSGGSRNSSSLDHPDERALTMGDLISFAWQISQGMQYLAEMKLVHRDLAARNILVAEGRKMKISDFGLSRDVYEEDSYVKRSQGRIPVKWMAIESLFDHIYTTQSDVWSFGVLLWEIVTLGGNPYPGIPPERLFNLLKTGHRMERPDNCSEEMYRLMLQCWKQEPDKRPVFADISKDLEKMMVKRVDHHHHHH

Measured: IC50

OCc1cccc(-c2c[nH]c3ncccc23)c1 [Compound P-0087]
≤ 10 µM: Irak4 | Kdr | MAP2K1 | Stk6 | IKK beta

Brc1ccc(/C=C\c2c[nH]c3ncccc23)cc1 [Compound P-0511]
≤ 10 µM: Kit | p38

O=C(c1ccccc1F)c1c[nH]c2ncc(-c3cccnc3)cc12 [Compound P-0708]
not listed: Irak4 | MAP2K1 | Stk6 | IKK beta
≤ 10 µM: all other assays above
